Data: publication PMC7583830 (Molecules, 2020)
“And” between values parts separate entries of the source, which are not always exact repeats. Equal entries are not always repeated. Where two headings read alike, the source gives them in different places. Blank lines part the entries; values can stand above or below the molecule they belong to. Where a SMILES comes first, the peptide text is derived from it. [ ]: non-standard residue; d: D form. The star is where a group is joined. DOTA = O=C(O)CN1CCN(CC(=O)O)CCN(CC(=O)*)CCN(CC(=O)O)CC1; 1Nal = N[C@@H](Cc1cccc2ccccc12)C(=O)O; NMeNle = CCCC[C@H](NC)C(=O)O

Key:
human CCK2R = molecular target: T1, human CCK2R (Homo sapiens, UniProt P32239); experiment: Competition assay against [125I][3-iodo-Tyr12,Leu15]gastrin-I on A431-CCK2R cells; assay type: binding; settings: non-labeled peptide, displacement of [125I][3-iodo-Tyr12,Leu15]gastrin-I, 1 h RT
T1 construct: expressed in transfected cells; host or cells: A431 human epidermoid carcinoma cells, stably transfected (plasmid pCR3.1); provided by Dr. Luigi Aloj
T1 sequence (P32239 1-447): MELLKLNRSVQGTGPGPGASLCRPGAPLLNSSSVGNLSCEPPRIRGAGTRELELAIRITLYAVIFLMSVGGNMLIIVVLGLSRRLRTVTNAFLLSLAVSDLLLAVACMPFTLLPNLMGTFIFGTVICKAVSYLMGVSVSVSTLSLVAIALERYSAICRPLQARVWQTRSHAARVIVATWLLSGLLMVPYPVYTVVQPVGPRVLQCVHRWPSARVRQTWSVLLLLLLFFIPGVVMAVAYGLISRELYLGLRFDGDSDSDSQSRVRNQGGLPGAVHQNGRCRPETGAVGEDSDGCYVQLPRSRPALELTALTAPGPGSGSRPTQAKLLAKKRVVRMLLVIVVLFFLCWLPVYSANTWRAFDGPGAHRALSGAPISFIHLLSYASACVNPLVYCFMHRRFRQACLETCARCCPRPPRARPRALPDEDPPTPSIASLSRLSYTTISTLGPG
Protocol: [^125I][3-iodo-Tyr^12,Leu^15]gastrin-I at high molar activity was obtained by HPLC purification and stored in aliquots at −25 °C. Binding assays were carried out using 96-well filter plates (MultiScreenHTS-FB, Merck Group, Darmstadt, Germany) pre-treated with 10 mM TRIS/139 mM NaCl pH 7.4 (2 × 250 µL). For the assay, 200,000–400,000 A431-CCK2R cells per well were prepared in 20 mM HEPES buffer pH 7.4 containing 10 mM MgCl2, 14 µM bacitracin and 0.5% BSA. The cells (n = 3) were incubated with increasing concentrations of the peptide conjugates (0.0003–30,000 nM) and [^125I][3-iodo-Tyr^12,Leu^15]gastrin-I (50,000 cpm) for 1 h at RT. Incubation was interrupted by filtration of the medium and rapid rinsing with ice-cold 10 mM TRIS/139 mM NaCl pH 7.4 (2 × 200 µL) and the filters were measured in the gamma-counter. Half maximal inhibitory concentration (IC50) values were calculated following nonlinear regression with Origin software (Microcal Origin 6.1, Northampton, MA, USA).

[1] = Distribution coefficient (logD) in octanol/PBS; assay type: physicochemical
Protocol: The mixture was vigorously vortexed at room temperature over a period of 15 min using a small shaker (MS3 Basic, IKA, Staufen, Germany) with speed of 1500 rpm.

[2] = Metabolic stability in vivo and radiometabolites (radio-HPLC of blood, urine, liver, kidney); parameters: species or system BALB/c mice
Protocol: Metabolic biodistribution studies were performed in accordance with the ethical standards of the institution and approved by the Austrian Ministry of Science (BMWFW-66.011/0072-V/3b/2019). These studies were carried out in 5- to 7-week-old female BALB/c mice (n = 3) injected with [^177Lu]Lu-1 via a lateral tail vein. To allow monitoring of the metabolites by radio-HPLC, mice were injected with 30 MBq corresponding to 0.8 nmol total peptide. The mice were euthanized by cervical dislocation after different time points of 10 min, 30 min and 1 h p.i. and the urine and a venous blood sample were collected at the time of sacrifice. Liver and kidneys were dissected and homogenized in 20 mM HEPES buffer pH 7.3 at a ratio of 1:1 (v/v) with an Ultra-Turrax T8 homogenizer (IKA-Werke, Staufen, Germany) for 1 min at RT. Before radio-HPLC analysis, the samples (except urine) were treated with ACN at a ratio of 1:1 (v/v) to precipitate proteins, centrifuged at 2000× g for 2 min and diluted with water at a ratio of 1:1 (v/v). For HPLC analysis of the samples, the analytical HPLC system described above with a flow rate of 1 mL/min was used together with the following optimized water/ACN/0.1% TFA gradient to allow a better separation of [^177Lu]Lu-1 and the different radiometabolites: 0–7 min 1–7% ACN, 7–8 min 7–10% ACN, 8–18 min 10–18% ACN, 18–20 min 18–32% ACN, 20–27 min 32% ACN, 27–37 min […], 37–40 min 80% ACN, 40–40.1 min 80–1% ACN, 40.1–45 min 1% ACN. Urine was measured with the low-sensitivity loop of the radiodetector. The remaining samples were analyzed with the high-sensitivity loop due to the lower radioactivity present in blood, liver and kidney homogenate. To quantify the percentage of intact [^177Lu]Lu-1 and [^177Lu]Lu-M1 showing some overlap in the radiochromatogram when using the high-sensitivity loop of the radiodetector, the two radiopeptides were co-injected at different known ratios to enable a more accurate separation and integration of the two peaks (see supporting Figure S4). Mice from the metabolic biodistribution studies were subjected to a further dissection of all remaining tissues (blood, lung, heart, femur, spleen, muscle, intestine, pancreas and stomach). All organs, also including liver and kidneys, were weighed, and their radioactivity was measured in the gamma counter together with a standard and the residual body. To quantify the uptake of radioactivity in liver and kidneys, a part of liver and kidney homogenate was measured in the gamma counter to extrapolate the radioactivity for the whole organ.

[3] = Stability in fresh human serum (radio-HPLC); assay type: in vitro ADME; settings: 24 h incubation, 37 °C
Protocol: In vitro stability studies for the characterization of the metabolic stability of the radiolabeled peptide analogs in human serum were carried out with [^177Lu]Lu-1, [^177Lu]Lu-M1, [^177Lu]Lu-M2, [^177Lu]Lu-M3 and [^177Lu]Lu-M4 (n = 2). Additional stability studies in rat liver and kidney homogenates were performed for [^177Lu]Lu-1 (n = 2). Tissue homogenates were prepared from dissected organs by homogenization for 1 min at RT (IKA-Werke, Staufen, Germany) in 20 mM HEPES buffer pH 7.3 (30% v/v). The radioligands were incubated in the different media at a concentration of 500 pmol/mL (corresponding to an activity of 6–11 MBq). After incubation at 37 °C at different time points for up to 24 h, a 100 µl sample was taken in duplicates and analyzed by HPLC. Samples obtained from human serum and rat homogenates were treated with ACN at a ratio of 1:1.5 (v/v) to precipitate proteins, centrifuged (14,000 rpm, 2 min, centrifuge 5424, Eppendorf AG, Germany) and diluted with water at a ratio of 1:1 (v/v). A 100 µl aliquot of this solution was injected into the radio HPLC system. The degradation of the radioligand was evaluated based on the radiochemical purity after radiolabeling and the percentage of intact radiopeptide observed during incubation in the different media.

[4] = Protein binding in human serum by size exclusion chromatography; assay type: in vitro ADME; settings: 24 h incubation
Protocol: For protein binding assessment, the radiolabeled DOTA-peptides were incubated in fresh human serum at 37 °C (500 pmol/mL, n = 2). After 1, 4 and 24 h of incubation, two samples were taken for each time point and analyzed by Sephadex G-50 size-exclusion chromatography (GE Healthcare Illustra, Little Chalfont, UK). The percentage of protein binding was determined by measuring the column and the eluate with the gamma-counter.

[5] = octanol/PBS pH 7.4, read-out: logD
[6] = blood, 30 min p.i., mice injected i.v. with [177Lu]Lu-1
[7] = blood, 60 min p.i., mice injected i.v. with [177Lu]Lu-1
[8] = blood, different time points up to 1 h p.i.

SMILES: CCCC[C@@H](C(=O)N[C@@H](CC(=O)O)C(=O)N[C@@H](Cc1cccc2ccccc12)C(=O)O)N(C)C(=O)[C@H](Cc1c[nH]c2ccccc12)NC(=O)CNC(=O)[C@H](Cc1ccc(O)cc1)NC(=O)[C@@H]1CCCN1C(=O)[C@@H](CCC(=O)O)NC(=O)CN1CCN(CC(=O)O)CCN(CC(=O)O)CCN(CC(=O)O)CC1 [[^177Lu]Lu-M1, metal not drawn] ({DOTA}-[dE]PYGW[NMeNle]D[1Nal]-OH)
logD [1, 5]: -4.07 ± 0.35
percentage of intact radiopeptide / radiometabolite [2, 6]: 9.9%
percentage of intact radiopeptide / radiometabolite [2, 7]: 5.8%
amount of radiometabolite [2, 8]: < 10%
percentage of intact radiopeptide / radiometabolite ([2]; kidney, 30 min p.i.): 2.5%
percentage of intact radiopeptide / radiometabolite ([2]; liver, 30 min p.i.): 4.8%
percentage of intact radiopeptide / radiometabolite ([2]; liver, 60 min p.i.): 4.6%
percentage of intact radiopeptide / radiometabolite ([2]; urine, 30 min p.i.): 1.4%
intact radiopeptide [3]: 89.1 ± 1.3%
intact radiopeptide ([3]; listed as radiolabeled M1): 89%
fraction unbound [4]: 0.546

SMILES: CCCC[C@@H](C(=O)N[C@@H](CC(=O)O)C(=O)O)N(C)C(=O)[C@H](Cc1c[nH]c2ccccc12)NC(=O)CNC(=O)[C@H](Cc1ccc(O)cc1)NC(=O)[C@@H]1CCCN1C(=O)[C@@H](CCC(=O)O)NC(=O)CN1CCN(CC(=O)O)CCN(CC(=O)O)CCN(CC(=O)O)CC1 [[^177Lu]Lu-M2, metal not drawn] ({DOTA}-[dE]PYGW[NMeNle]D-OH; C-terminus assumed)
logD [1, 5]: -4.18 ± 0.17
percentage of intact radiopeptide / radiometabolite [2, 6]: 3.8%
percentage of intact radiopeptide / radiometabolite [2, 7]: 7.3%
amount of radiometabolite [2, 8]: < 8%
percentage of intact radiopeptide / radiometabolite ([2]; kidney, 30 min p.i.): 20.7%
percentage of intact radiopeptide / radiometabolite ([2]; kidney, 60 min p.i.): 12% and 12.3%
percentage of intact radiopeptide / radiometabolite ([2]; liver, 30 min p.i.): 7.2%
percentage of intact radiopeptide / radiometabolite ([2]; liver, 60 min p.i.): 6.9%
percentage of intact radiopeptide / radiometabolite ([2]; urine, 30 min p.i.): 40.5%
percentage of intact radiopeptide / radiometabolite ([2]; urine, 60 min p.i.): 40.3%
amount of radiometabolite ([2]; urine, time point not stated): ~ 40%
intact radiopeptide [3]: 98.1 ± 0.3%
fraction unbound [4]: 0.519

SMILES: O=C(O)CC[C@@H](NC(=O)CN1CCN(CC(=O)O)CCN(CC(=O)O)CCN(CC(=O)O)CC1)C(=O)N1CCC[C@H]1C(=O)N[C@@H](Cc1ccc(O)cc1)C(=O)NCC(=O)N[C@@H](Cc1c[nH]c2ccccc12)C(=O)O [[^177Lu]Lu-M4, metal not drawn] ({DOTA}-[dE]PYGW-OH; C-terminus assumed)
logD ([1]; pH 7.4): -4.19 ± 0.3
amount of radiometabolite ([2]; mouse, in vivo): < 3%

SMILES: O=C(O)CC[C@@H](NC(=O)CN1CCN(CC(=O)O)CCN(CC(=O)O)CCN(CC(=O)O)CC1)C(=O)N1CCC[C@H]1C(=O)N[C@@H](Cc1ccc(O)cc1)C(=O)NCC(=O)O [[^177Lu]Lu-M5, metal not drawn] ({DOTA}-[dE]PYG-OH; C-terminus assumed)
amount of radiometabolite ([2]; mouse, in vivo): < 10%

SMILES: O=C(O)CC[C@@H](NC(=O)CN1CCN(CC(=O)O)CCN(CC(=O)O)CCN(CC(=O)O)CC1)C(=O)N1CCC[C@H]1C(=O)N[C@@H](Cc1ccc(O)cc1)C(=O)O [[^177Lu]Lu-M6, metal not drawn] ({DOTA}-[dE]-Pro-Tyr-OH; C-terminus assumed)
amount of radiometabolite ([2]; mouse, in vivo): ~ 20%

SMILES: CCCC[C@@H](C(=O)N[C@@H](CC(=O)O)C(=O)N[C@@H](Cc1cccc2ccccc12)C(N)=O)N(C)C(=O)[C@H](Cc1c[nH]c2ccccc12)NC(=O)CNC(=O)[C@H](Cc1ccc(O)cc1)NC(=O)[C@@H]1CCCN1C(=O)[C@@H](CCC(=O)O)NC(=O)CN1CCN(CC(=O)O)CCN(CC(=O)O)CCN(CC(=O)O)CC1 [compound 1, DOTA-DGlu-Pro-Tyr-Gly-Trp-(N-Me)Nle-Asp-1Nal-NH2] ({DOTA}-[dE]PYGW[NMeNle]D[1Nal]-NH2)
IC50 (human CCK2R): 0.00069 ± 9e-05 µM

More lines, now with the values ahead:

IC50 (human CCK2R): > 1 µM
SMILES: CCCC[C@@H](C(=O)N[C@@H](CC(=O)O)C(=O)N[C@@H](Cc1cccc2ccccc12)C(=O)O)N(C)C(=O)[C@H](Cc1c[nH]c2ccccc12)NC(=O)CNC(=O)[C@H](Cc1ccc(O)cc1)NC(=O)[C@@H]1CCCN1C(=O)[C@@H](CCC(=O)O)NC(=O)CN1CCN(CC(=O)O)CCN(CC(=O)O)CCN(CC(=O)O)CC1 [M1, DOTA-DGlu-Pro-Tyr-Gly-Trp-(N-Me)Nle-Asp-1Nal-COOH] ({DOTA}-[dE]PYGW[NMeNle]D[1Nal]-OH)

IC50 (human CCK2R): > 1 µM
SMILES: CCCC[C@@H](C(=O)N[C@@H](CC(=O)O)C(=O)O)N(C)C(=O)[C@H](Cc1c[nH]c2ccccc12)NC(=O)CNC(=O)[C@H](Cc1ccc(O)cc1)NC(=O)[C@@H]1CCCN1C(=O)[C@@H](CCC(=O)O)NC(=O)CN1CCN(CC(=O)O)CCN(CC(=O)O)CCN(CC(=O)O)CC1 [M2, DOTA-DGlu-Pro-Tyr-Gly-Trp-(N-Me)Nle-Asp] ({DOTA}-[dE]PYGW[NMeNle]D-OH; C-terminus assumed)

IC50 (human CCK2R): > 1 µM
SMILES: CCCC[C@@H](C(=O)O)N(C)C(=O)[C@H](Cc1c[nH]c2ccccc12)NC(=O)CNC(=O)[C@H](Cc1ccc(O)cc1)NC(=O)[C@@H]1CCCN1C(=O)[C@@H](CCC(=O)O)NC(=O)CN1CCN(CC(=O)O)CCN(CC(=O)O)CCN(CC(=O)O)CC1 [M3, DOTA-DGlu-Pro-Tyr-Gly-Trp-(N-Me)Nle] ({DOTA}-[dE]PYGW[NMeNle]-OH; C-terminus assumed)

IC50 (human CCK2R): > 1 µM
SMILES: O=C(O)CC[C@@H](NC(=O)CN1CCN(CC(=O)O)CCN(CC(=O)O)CCN(CC(=O)O)CC1)C(=O)N1CCC[C@H]1C(=O)N[C@@H](Cc1ccc(O)cc1)C(=O)NCC(=O)N[C@@H](Cc1c[nH]c2ccccc12)C(=O)O [M4, DOTA-DGlu-Pro-Tyr-Gly-Trp] ({DOTA}-[dE]PYGW-OH; C-terminus assumed)
